Source: the supplement of paper PMC10307832

Assays:
Assay in all cases: relative viability (nuclei count vs DMSO), 5 days (fraction); higher = more cells survive
[1] = compound: Cn1cncc1[C@@](N)(c1ccc(Cl)cc1)c1ccc2c(c1)c(-c1cccc(Cl)c1)cc(=O)n2C [Tipifarnib] + Cc1nc(NC(=O)N2CCC[C@H]2C(N)=O)sc1-c1ccnc(C(C)(C)C(F)(F)F)c1 [Alpelisib] (partner 2 µM)
Summary of the method: (§1)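 For relative viability, nuclei counts in treated wells were divided by those in vehicle wells. Lung cancer cell lines had been pin-tool dosed in 1536-well plates the day after seeding and cultured for 5 days, then fixed and stained in one step (final 0.05% Triton X-100, 1% formaldehyde, 1 ug/ml Hoechst) and imaged at 4×. Doses were one drug alone or a fixed anchor-drug dose plus five library-drug doses (not always all listed) in √10 steps, and values are duplicate-plate medians.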

[2] = compound: Cn1cncc1[C@@](N)(c1ccc(Cl)cc1)c1ccc2c(c1)c(-c1cccc(Cl)c1)cc(=O)n2C [Tipifarnib] + NC(=O)Nc1cc(-c2cccc(F)c2)sc1C(=O)N[C@H]1CCCNC1 [AZD7762] (partner 0.2 µM)
Summary of the method: as §1

[3] = compound: Cn1cncc1[C@@](N)(c1ccc(Cl)cc1)c1ccc2c(c1)c(-c1cccc(Cl)c1)cc(=O)n2C [Tipifarnib] + N=C(N)NC(=N)NCCc1ccccc1 [Phenformin] (partner 250 µM)
Summary of the method: as §1

[4] = compound: Cn1cncc1[C@@](N)(c1ccc(Cl)cc1)c1ccc2c(c1)c(-c1cccc(Cl)c1)cc(=O)n2C [Tipifarnib] + CS(=O)(=O)N1CCN(Cc2cc3nc(-c4cccc5[nH]ncc45)nc(N4CCOCC4)c3s2)CC1 [Pictilisib] (partner 1 µM)
Summary of the method: as §1

Cell Line | relative viability ([1]; first compound 0.01 µM) | relative viability ([1]; first compound 0.03162 µM) | relative viability ([1]; first compound 0.1 µM) | relative viability ([1]; first compound 0.3162 µM) | relative viability ([1]; first compound 1 µM) | relative viability ([2]; first compound 0.01 µM) | relative viability ([2]; first compound 0.03162 µM) | relative viability ([2]; first compound 0.1 µM) | relative viability ([2]; first compound 0.3162 µM) | relative viability ([2]; first compound 1 µM) | relative viability ([3]; first compound 0.01 µM) | relative viability ([3]; first compound 0.03162 µM) | relative viability ([3]; first compound 0.1 µM) | relative viability ([3]; first compound 0.3162 µM) | relative viability ([3]; first compound 1 µM) | relative viability ([4]; first compound 0.01 µM) | relative viability ([4]; first compound 0.03162 µM) | relative viability ([4]; first compound 0.1 µM) | relative viability ([4]; first compound 0.3162 µM) | relative viability ([4]; first compound 1 µM)
NCI-H2347 | 1.05 | 0.798 | 0.714 | 0.689 | 0.674 | 0.834 | 0.721 | 0.665 | 0.505 | 0.61 | 0.474 | 0.405 | 0.501 | 0.318 | 0.315 | 0.613 | 0.478 | 0.658 | 0.648 | 0.404
NCI-H2405 | 0.863 | 0.832 | 0.7 | 0.718 | 0.72 | 0.759 | 0.758 | 0.688 | 0.523 | 0.589 | 0.384 | 0.371 | 0.374 | 0.415 | 0.361 | 0.406 | 0.412 | 0.351 | 0.405 | 0.404
NCI-H3122 | 0.665 | 0.598 | 0.527 | 0.402 | 0.401 | 0.967 | 0.971 | 0.714 | 0.556 | 0.348 | 0.413 | 0.419 | 0.419 | 0.356 | 0.228 | 0.6 | 0.489 | 0.442 | 0.347 | 0.27
PC-3 [JPC-3] | 1.04 | 1 | 0.816 | 0.78 | 0.662 | 0.805 | 0.714 | 0.532 | 0.519 | 0.457 | 0.513 | 0.44 | 0.458 | 0.399 | 0.377 | 0.811 | 0.651 | 0.651 | 0.44 | 0.508
PC-14 | 0.99 | 0.774 | 0.653 | 0.392 | 0.451 | 0.322 | 0.228 | 0.227 | 0.136 | 0.16 | 0.512 | 0.494 | 0.282 | 0.239 | 0.128 | 0.656 | 0.59 | 0.251 | 0.169 | 0.173
RERF-LC-KJ | 0.955 | 0.919 | 0.592 | 0.631 | 0.55 | 1.02 | 1.22 | 0.975 | 0.656 | 0.243 | 0.447 | 0.401 | 0.392 | 0.366 | 0.339 | 0.551 | 0.501 | 0.561 | 0.347 | 0.328
